Eleven molecules from patent US10245275B2 (ViiV HEALTHCARE UK (NO.4) LIMITED, priority 2014, dated 2019) can be followed below.

Assay [1] has as its system WT (wild-type HIV virus; recombinant NL4-3 virus). The experiment in a line: microbe, parasite or virus in culture. In kind it is cell-based, HIV-1. The method, then:
(§1) MT-2 cells and 293T cells were obtained from the NIH AIDS Research and Reference Reagent Program. MT-2 cells were propagated in RPMI 1640 media supplemented with 10% heat-inactivated fetal bovine serum, […]. The 293T cells were propagated in DMEM media supplemented with 10% heat-inactivated fetal bovine serum (FBS), 100 units/mL penicillin G and 100 μg/mL streptomycin. […] A recombinant NL4-3 virus, in which a section of the nef gene from NL4-3 was replaced with the Renilla luciferase gene, was used as a reference virus. In addition, residue Gag P373 was converted to P373S. […] Transfections were performed in 293T cells using LipofectAMINE PLUS from Invitrogen (Carlsbad, Calif.), according to manufacturer's instruction. The virus was titered in MT-2 cells using luciferase enzyme activity as a marker. Luciferase was quantitated using the Dual Luciferase kit from Promega (Madison, Wis.), with modifications to the manufacturer's protocol. The diluted Passive Lysis solution was pre-mixed with the re-suspended Luciferase Assay Reagent and the re-suspended Stop & Glo Substrate (2:1:1 ratio). Fifty (50) μL of the mixture was added to each aspirated well on assay plates and luciferase activity was measured immediately on a Wallac TriLux (Perkin-Elmer). Antiviral activities of inhibitors toward the recombinant virus were quantified by measuring luciferase activity in cells infected for 4-5 days with NLRluc recombinants in the presence serial dilutions of the inhibitor.
WT refers to wild-type HIV virus. […]

Assay [2] deals with HIV-1 NL4-3 gag A364V virus. The experiment in a line: microbe, parasite or virus in culture. The class given is cell-based. The method, then:
as §1
Both recombinant viruses were used as described above in the HIV cell culture assay for the NL4-3 virus.

The mark [3] stands for this setting: Human immunodeficiency virus 1, NL43, MT2, read-out: WT (EC50, uM), Table 1 regular screen, MT-2 cells, luciferase readout.
The mark [4] stands for this setting: Human immunodeficiency virus 1, NL43, MT2, read-out: A364V (EC50, uM), Table 1 regular screen, MT-2 cells, luciferase readout.
Where [5] appears, read: Human immunodeficiency virus 1, NL43, MT2, read-out: WT (EC50, uM), Table 1 regular screen, class symbol.
Setting [6] is: Human immunodeficiency virus 1, NL43, MT2, read-out: A364V (EC50, uM), Table 1 regular screen, class symbol.

Read-outs that look alike come from different tables or passages of the source. Some results are limits rather than exact numbers.

For `C=C(C)[C@@H]1CC[C@]2(NCCC3(O)CCC(OS(C)(=O)=O)CC3)CC[C@]3(C)[C@H](CC[C@@H]4[C@@]5(C)CC=C(C6=CC[C@](CF)(C(=O)O)CC6)C(C)(C)[C@@H]5CC[C@]43C)[C@@H]12` (stereo partly drawn) [Example 2-22, (S)-1-(fluoromethyl)-4-((1R,3aS,5aR,5bR,7aR,11aS,11bR,13aR,13bR)-3a-((2-(1-hydroxy-4-((methylsulfonyl)oxy)cyclohexyl)ethyl)amino)-5a,5b,8,8,11a-pentamethyl-1-(prop-1-en-2-yl)-2,3,3a,4,5,5a,5b,6,7,7a,8,11,11a,11b,12,13,13a,13b-octadecahydro-1H-cyclopenta[a]chrysen-9-yl)cyclohex-3-enecarboxylic acid], the EC50 in assay [1] (setting [3]) turned out to be 0.00315 µM; in assay [2] (setting [4]), 0.107 µM.

In the case of `C=C(C)[C@@H]1CC[C@]2(NCCN3CCC(C)(O)CC3)CC[C@]3(C)[C@H](CC[C@@H]4[C@@]5(C)CC=C(C6=CC[C@](CF)(C(=O)O)CC6)C(C)(C)[C@@H]5CC[C@]43C)[C@@H]12` [Example 2-23, (S)-1-(fluoromethyl)-4-((1R,3aS,5aR,5bR,7aR,11aS,11bR,13aR,13bR)-3a-((2-(4-hydroxy-4-methylpiperidin-1-yl)ethyl)amino)-5a,5b,8,8,11a-pentamethyl-1-(prop-1-en-2-yl)-2,3,3a,4,5,5a,5b,6,7,7a,8,11,11a,11b,12,13,13a,13b-octadecahydro-1H-cyclopenta[a]chrysen-9-yl)cyclohex-3-enecarboxylic acid], the figures for the EC50 in assay [1] (setting [3]) and in assay [2] (setting [4]) were 0.00121 µM and 0.0597 µM, respectively.

As to `C=C(C)[C@@H]1CC[C@]2(NCCN3CCOC3=O)CC[C@]3(C)[C@H](CC[C@@H]4[C@@]5(C)CC=C(C6=CC[C@](CF)(C(=O)O)CC6)C(C)(C)[C@@H]5CC[C@]43C)[C@@H]12` [Example 2-24, (S)-1-(fluoromethyl)-4-((1R,3aS,5aR,5bR,7aR,11aS,11bR,13aR,13bR)-5a,5b,8,8,11a-pentamethyl-3a-((2-(2-oxooxazolidin-3-yl)ethyl)amino)-1-(prop-1-en-2-yl)-2,3,3a,4,5,5a,5b,6,7,7a,8,11,11a,11b,12,13,13a,13b-octadecahydro-1H-cyclopenta[a]chrysen-9-yl)cyclohex-3-enecarboxylic acid], the EC50 was determined as 0.0053 µM in assay [1] (setting [3]) and 0.932 µM in assay [2] (setting [4]).

`C=C(C)[C@@H]1CC[C@]2(NCCN3CCNC3=O)CC[C@]3(C)[C@H](CC[C@@H]4[C@@]5(C)CC=C(C6=CC[C@](CF)(C(=O)O)CC6)C(C)(C)[C@@H]5CC[C@]43C)[C@@H]12` [Example 2-25, (S)-1-(fluoromethyl)-4-((1R,3aS,5aR,5bR,7aR,11aS,11bR,13aR,13bR)-5a,5b, 8,8,11a-pentamethyl-3a-((2-(2-oxoimidazolidin-1-yl)ethyl)amino)-1-(prop-1-en-2-yl)-2,3,3a,4,5,5a,5b,6,7,7a,8,11,11a,11b,12,13,13a,13b-octadecahydro-1H-cyclopenta[a]chrysen-9-yl)cyclohex-3-enecarboxylic acid]: the EC50 in assay [1] (setting [5]) was below 0.05 µM; in assay [2] (setting [6]), above 0.05 µM.

Take `C=C(C)[C@@H]1CC[C@]2(NCCN3CCN(C)C3=O)CC[C@]3(C)[C@H](CC[C@@H]4[C@@]5(C)CC=C(C6=CC[C@](CF)(C(=O)O)CC6)C(C)(C)[C@@H]5CC[C@]43C)[C@@H]12` [Example 2-26, (S)-1-(fluoromethyl)-4-((1R,3aS,5aR,5bR,7aR,11aS,11bR,13aR,13bR)-5a,5b,8,8,11a-pentamethyl-3a-((2-(3-methyl-2-oxoimidazolidin-1-yl)ethyl)amino)-1-(prop-1-en-2-yl)-2,3,3a,4,5,5a,5b,6,7,7a,8,11,11a,11b,12,13,13a,13b-octadecahydro-1H-cyclopenta[a]chrysen-9-yl)cyclohex-3-enecarboxylic acid]: the EC50 is below 0.05 µM in assay [1] (setting [5]) and above 0.05 µM in assay [2] (setting [6]).

For `C=C(C)[C@@H]1CC[C@]2(NCCN3CCN(C(C)=O)C(C)(C)C3=O)CC[C@]3(C)[C@H](CC[C@@H]4[C@@]5(C)CC=C(C6=CC[C@](CF)(C(=O)O)CC6)C(C)(C)[C@@H]5CC[C@]43C)[C@@H]12` [Example 2-27, (S)-4-((1R,3aS,5aR,5bR,7aR,11aS,11bR,13aR,13bR)-3a-((2-(4-acetyl-3,3-dimethyl-2-oxopiperazin-1-yl)ethyl)amino)-5a,5b, 8,8,11a-pentamethyl-1-(prop-1-en-2-yl)-2,3,3a,4,5,5a,5b,6,7,7a,8,11,11a,11b,12,13,13a,13b-octadecahydro-1H-cyclopenta[a]chrysen-9-yl)-1-(fluoromethyl)cyclohex-3-enecarboxylic acid], the EC50 in assay [1] (setting [3]) stood at 0.00577 µM; in assay [2] (setting [4]) it was 0.0201 µM.

In the case of `C=C(C)[C@@H]1CC[C@]2(NCCN3CCOCC3)CC[C@]3(C)[C@H](CC[C@@H]4[C@@]5(C)CC=C(C6=CC[C@](CF)(C(=O)O)CC6)C(C)(C)[C@@H]5CC[C@]43C)[C@@H]12` [Example 3, (S)-1-(fluoromethyl)-4-((1R,3aS,5aR,5bR,7aR,11aS,11bR,13aR,13bR)-5a,5b,8,8,11a-pentamethyl-3a-((2-morpholinoethyl)amino)-1-(prop-1-en-2-yl)-2,3,3a,4,5,5a,5b,6,7,7a,8,11,11a,11b,12,13,13a,13b-octadecahydro-1H-cyclopenta[a]chrysen-9-yl)cyclohex-3-enecarboxylic acid], the EC50 in assay [1] (setting [3]) was 0.00453 µM; in assay [2] (setting [4]), 0.679 µM.

As for `C=C(C)[C@@H]1CC[C@]2(NCCC3CCS(=O)(=O)CC3)CC[C@]3(C)[C@H](CC[C@@H]4[C@@]5(C)CC=C(C6=CC[C@](CF)(C(=O)O)CC6)C(C)(C)[C@@H]5CC[C@]43C)[C@@H]12` [Example 7, (S)-4-((1R,3aS,5aR,5bR,7aR,11aS,11bR,13aR,13bR)-3a-((2-(1,1-dioxidotetrahydro-2H-thiopyran-4-yl)ethyl)amino)-5a,5b,8,8,11a-pentamethyl-1-(prop-1-en-2-yl)-2,3,3a,4,5,5a,5b,6,7,7a,8,11,11a,11b,12,13,13a,13b-octadecahydro-1H-cyclopenta[a]chrysen-9-yl)-1-(fluoromethyl)cyclohex-3-enecarboxylic acid], the figures for the EC50 in assay [1] (setting [5]) and in assay [2] (setting [6]) were below 0.05 µM and above 0.05 µM, respectively.

As to `C=C(C)[C@@H]1CC[C@]2(NC(=O)CC3CCOCC3)CC[C@]3(C)[C@H](CC[C@@H]4[C@@]5(C)CC=C(C6=CC[C@](CF)(C(=O)O)CC6)C(C)(C)[C@@H]5CC[C@]43C)[C@@H]12` [Example 8, (S)-1-(fluoromethyl)-4-((1R,3aS,5aR,5bR,7aR,11aS,11bR,13aR,13bR)-5a,5b,8,8,11a-pentamethyl-1-(prop-1-en-2-yl)-3a-(2-(tetrahydro-2H-pyran-4-yl)acetamido)-2,3,3a,4,5,5a,5b,6,7,7a,8,11,11a,11b,12,13,13a,13b-octadecahydro-1H-cyclopenta[a]chrysen-9-yl)cyclohex-3-enecarboxylic acid], the concentration giving a half-maximal response (EC50) in assay [1] (setting [5]) and in assay [2] (setting [6]) was above 0.05 µM throughout.

Consider `C=C(C)[C@@H]1CC[C@]2(NCCC3CCOCC3)CC[C@]3(C)[C@H](CC[C@@H]4[C@@]5(C)CC=C(C6=CC[C@](CF)(C(=O)O)CC6)C(C)(C)[C@@H]5CC[C@]43C)[C@@H]12` [Example 9, (S)-1-(fluoromethyl)-4-((1R,3aS,5aR,5bR,7aR,11aS,11bR,13aR,13bR)-5a,5b,8,8,11a-pentamethyl-1-(prop-1-en-2-yl)-3a-((2-(tetrahydro-2H-pyran-4-yl)ethyl)amino)-2,3,3a,4,5,5a,5b,6,7,7a,8,11,11a,11b,12,13,13a,13b-octadecahydro-1H-cyclopenta[a]chrysen-9-yl)cyclohex-3-enecarboxylic acid], for which the EC50 in assay [1] (setting [5]) was below 0.05 µM; in assay [2] (setting [6]) it was above 0.05 µM.

With `C=C(C)[C@@H]1CC[C@]2(CNCC(C)(C)N3CCS(=O)(=O)CC3)CC[C@]3(C)[C@H](CC[C@@H]4[C@@]5(C)CC=C(C6=CC[C@](CF)(C(=O)O)CC6)C(C)(C)[C@@H]5CC[C@]43C)[C@@H]12` [Example 10, (S)-4-((1R,3aS,5aR,5bR,7aR,11aS,11bR,13aR,13bR)-3a-(((2-(1,1-dioxidothiomorpholino)-2-methylpropyl)amino)methyl)-5a,5b, 8,8,11a-pentamethyl-1-(prop-1-en-2-yl)-2,3,3a,4,5,5a,5b,6,7,7a,8,11,11a,11b,12,13,13a,13b-octadecahydro-1H-cyclopenta[a]chrysen-9-yl)-1-(fluoromethyl)cyclohex-3-enecarboxylic acid], the EC50 in assay [1] (setting [5]) and in assay [2] (setting [6]) was below 0.05 µM each time.
